Data on 80 compounds can be found in publication PMC12040169 (PLOS Biology, 2025).

This series can be described thus: in vitro. The following applies: human, hela cells, % viability.

For orientation: viability means a read-out of living cells in per cent, often relative to untreated cells.

For `O=S1(=O)CCN(Cc2ccc3c(c2)OCCCO3)CC1` [CBK074831], the viability at 28.5 h, 10 µM came out at 101%. On the same count and under the same terms, the value for `Clc1ccc(CNC2CCCCC2NCc2ccc(Cl)nc2)cn1` (centres unmarked) [CBK025983] was 82.7%; that for `c1ccc(CC(Cc2nc3ccccc3[nH]2)c2nc3ccccc3[nH]2)cc1` (centres unmarked) [CBK150452] was 107%; that for `COc1cncc(-c2cncc(NCCCN3CCOCC3)n2)c1` [CBK037902] was 84%. With `O=C1C2C(c3ccc(F)cc3)NC(c3ccc(F)cc3)C1C(c1ccc(F)cc1)NC2c1ccc(F)cc1` (centres unmarked) [CBK261288], the viability at 28.5 h, 10 µM was determined as 110%.

Regarding `Cc1cc(=O)n(C)c(=O)n1CCCCCN1CCCC1` [CBK027386], the viability at 28.5 h, 10 µM is 99.9%. Same read-out and setting: in the case of `C[C@H]1CNCCN1c1nccnc1Cl` [CBK047524F] it was 88%. Turning to `COc1ccccc1NC(=O)N(CC(C)C)CC(C)C` [CBK005456], the viability at 28.5 h, 10 µM came to 102%. The same measure, in the same setting: in the case of `COCc1cn(C[C@H]2CC3CCN2C[C@@H]3C(=O)NC2CC2)nn1` (some centres unmarked) [CBK288835] it was 98.6%. With `O=C([C@@H]1C[C@@H]2C=C[C@H]1C2)N1CCC(c2noc3cc(F)ccc23)CC1` [CBK281542], the viability at 28.5 h, 10 µM worked out at 76.5%. In the case of `CCCCC(c1cccnc1)N(C)C(=O)CCc1ccnn1C` (centres unmarked) [CBK306664], the viability at 28.5 h, 10 µM was 117%. The same measure, in the same setting: the value for `N#C/C(=C/c1ccc(Sc2nc3ccccc3[nH]2)o1)c1ccc(C(=O)O)cc1` [CBK269141] was 112%; that for `CC(=O)N1CCCC(c2cc3cccnc3n2CCN2CCCC2)C1` (centres unmarked) [CBK284591] was 96.8%.

For `CNC(=O)c1nn(Cc2ccc(Cl)cc2)c2ccccc12` [CBK088451], the viability at 28.5 h, 10 µM (bulk resorufin, single well) worked out at 87.6%. Take `O=C(Nc1ccc(/C=C/c2ccccc2)cc1)c1ccc(COc2ccccc2)o1` [CBK267829]: the viability at 28.5 h, 10 µM was 91.3%. Take `CN1CCC(N(C)C(=O)Nc2ccc(C(N)=O)cc2)C1` (centres unmarked) [CBK156015]: the viability at 28.5 h, 10 µM came to 93.8%.

`CCOC(=O)c1c(NC(=O)C2CCCN2S(=O)(=O)c2ccccc2)sc2c1CCCC2` (centres unmarked) [CBK265012]: the viability at 28.5 h, 10 µM was 92%.

Turning to `Cc1cc(C)[n+](-c2ccccc2O)c(C)c1` [CBK005458G], the viability at 28.5 h, 10 µM stood at 116%. With `Nc1nn2c(c1Cc1c(Cl)cccc1Cl)OCC2` [CBK088759], the viability at 28.5 h, 10 µM stood at 91.7%. `COc1cc(NC(=O)CN2CCc3c(c(CO)nn3C)C2)cc(OC)c1` [CBK306841]: the viability at 28.5 h, 10 µM is 114%. Regarding `COc1cc(F)ccc1-c1ccc2ccc(NC(=O)C(C)C)nc2n1` [CBK073666], the viability at 28.5 h, 10 µM turned out to be 87.1%.

For `Fc1ccc(-c2cncc(NCCc3ccncc3)n2)c(F)c1` [CBK065810], the viability at 28.5 h, 10 µM came to 104%. Same read-out and setting: in the case of `Cn1cnnc1SC1c2cccc3cccc(c23)C1NS(=O)(=O)c1ccc(Cl)cc1` (centres unmarked) [CBK264707] it was 98.2%. The same measure, in the same setting: in the case of `CCCn1c(SCC(=O)c2ccc(CCNC(C)=O)cc2)n[nH]c1=O` [CBK296965] it was 92.1%; in that of `COc1ccc(/C=C2\SC(Nc3ccc(Cl)c(C(=O)O)c3)=NC2=O)cc1C` [CBK067743], 99.1%; in that of `Cc1c(Cl)cccc1NC(=O)CSCc1cc(=O)[nH][nH]1` [CBK268199], 98.1%. On the same count and under the same terms, in the case of `O=C(NCc1cccs1)c1ccc(-n2ccnc2)c(-n2cccc2)c1` [CBK285366] it was 102%; in that of `Cn1cccc1CCC(=O)NC1CCN(Cc2ccccc2Cl)CC1` [CBK306814], 88.4%. On to `COc1ccc(N2CCN(CC(=O)N3CCC(C(N)=O)CC3)CC2)cc1` [CBK268993], for which the viability at 28.5 h, 10 µM turned out to be 96.6%. Regarding `CC1CCN(Cc2ccc(-c3nnn(CC(=O)NCc4ccc(C(F)(F)F)nc4)n3)cc2)CC1` [CBK149721T], the viability at 28.5 h, 10 µM was found to be 112%. `CCn1c(C)nnc1CN(CC1CCCO1)C1CCCC1` (centres unmarked) [CBK304181]: the viability at 28.5 h, 10 µM is 96.4%. The same measure, in the same setting: in the case of `O=C(NCCCn1ccnc1)c1cccc(S(=O)(=O)N2CCCCC2)c1` [CBK304687] it was 111%; in that of `O=[N+]([O-])c1ccc(N2CCN(S(=O)(=O)c3ccc4ccccc4c3)CC2)cc1NCc1ccco1` [CBK264417], 108%. Still for that read-out and setting: the value for `CC1CCCCN1C(=O)c1ccc(-n2ccnc2)c(-n2cccc2)c1` (centres unmarked) [CBK284832] was 95.5%.

Consider `CC(C)CC(=O)Nc1nc(OCC(F)(F)F)cnc1-c1ccc(Cl)cc1Cl` [CBK145356], for which the viability at 28.5 h, 10 µM turned out to be 94.2%.

Turning to `Cc1ccc(S(=O)(=O)c2ccc(C)c(S(=O)(=O)NC3CCCCC3)c2)cc1S(=O)(=O)NC1CCCCC1` [CBK261653], the viability at 28.5 h, 10 µM worked out at 90%. Consider `COc1ccc(-c2nc3c(c(SCC(=O)O)n2)COC(C)(C)C3)cc1` [CBK286704], for which the viability at 28.5 h, 10 µM stood at 107%. In the case of `Cc1cc2c(=O)n(CC(=O)NCc3ccco3)cnc2s1` [CBK071898], the viability at 28.5 h, 10 µM was found to be 91.2%. Take `Cc1ccc(-c2cn(S(=O)(=O)c3cccc4nsnc34)nc2N)cc1` [CBK268871]: the viability at 28.5 h, 10 µM was 113%. Still for that read-out and setting: in the case of `CCNC(=O)N1CCN(CCCCN2C(=O)CC3(CCCC3)CC2=O)CC1` [CBK024999C] it was 102%; in that of `O=C(Cn1ccnc1)Nc1ccccc1Oc1ccc(F)cc1` [CBK281455], 90.1%.

As to `CCN(CC)CCCNC(=O)N1CCN(c2ccc(F)cc2)CC1` [CBK156419], the viability at 28.5 h, 10 µM is 88.6%. In the case of `O=C(c1ccc(F)cc1)[C@H]1CCCN(C(=O)c2ccco2)C1` [CBK284328], the viability at 28.5 h, 10 µM worked out at 80.7%. On the same count and under the same terms, the value for `Cc1noc(C)c1CC(=O)N1CCC2(C/C=C/C[C@H]3COCC[C@@H]3NC(=O)CNC2=O)CC1` [CBK292071] was 92.3%. Same read-out and setting: in the case of `CCN(CC)C(=O)c1cccc(NS(=O)(=O)c2cccc3cccnc23)c1` [CBK038999] it was 66.5%; in that of `CC(C)n1nnnc1-c1ccccc1NS(=O)(=O)c1cn[nH]c1` [CBK305542], 88.6%; in that of `CCCCC(c1ccc(Cl)cc1)N(CCN(C)C)c1ccccn1` (centres unmarked) [CBK012315F], 86.3%. The same measure, in the same setting: in the case of `COc1ccccc1NC(=O)CCCC(=O)O` [CBK261323] it was 101%; in that of `COc1ccccc1-c1cnc2[nH]c(=O)n(CC3CCOCC3)c2n1` [CBK064286], 100%; in that of `COc1ccc(S(=O)(=O)N(C)CC(=O)Nc2ccc(Br)cc2F)cc1Cl` [CBK267916], 81.3%. As to `O=C(CSc1nc2cccnc2[nH]1)Nc1cc(Cl)ccc1Cl` [CBK264644], the viability at 28.5 h, 10 µM came out at 101%. Same read-out and setting: in the case of `CCc1ccc(-c2noc(CSc3n[nH]c(=O)n3CCCOC)n2)cc1` [CBK295656] it was 95.1%. Still for that read-out and setting: the value for `O=C(NCCCO)c1c(O)c2ccccc2[nH]c1=O` [CBK018215] was 71.7%. Same read-out and setting: the value for `Cc1nnc(O)c2c(C)n(-c3ccc(Br)cc3)nc12` [CBK008726] was 86.2%; that for `O=C(c1ccc[nH]1)N1CCc2ccccc21` [CBK200285] was 72.6%.

On to `COc1ccc2cc3c(nc2c1)OC(=O)N(CC1CC1)C3` [CBK282432], for which the viability at 28.5 h, 10 µM turned out to be 86.8%.

`CC(=O)c1ccc(OC(C)C)c(CSc2nc(O)cc(O)n2)c1` [CBK263446]: the viability at 28.5 h, 10 µM worked out at 91.5%. Still for that read-out and setting: the value for `COc1ccccc1-c1nnc(Sc2nc([N+](=O)[O-])nn2C)o1` [CBK266858] was 85.1%; that for `O=C(CN1CCCC1=O)N1CCN(C(=O)c2ccc(Br)o2)CC1` [CBK034530] was 90.8%. On the same count and under the same terms, in the case of `CCOC(=O)c1cccnc1-c1cc2ccccc2o1` [CBK149237] it was 99.7%. For the compound `COc1cc(Cn2ncc(N3CCCCC3)cc2=O)cc(OC)c1` [CBK307662], the viability at 28.5 h, 10 µM stood at 97.1%. For the compound `Fc1cc(F)cc(-c2ccc3c(c2)COC2(CCNCC2)O3)c1` [CBK060915], where the note is “bulk resorufin, single well”, the viability at 28.5 h, 10 µM stood at 87.7%. For `c1ccc2c(OCCOCCN3CCCCC3)cccc2c1` [CBK262000], the viability at 28.5 h, 10 µM was found to be 88%. Same read-out and setting: in the case of `O=C(c1ccc(OC(F)F)cc1)N1CCCc2cc(S(=O)(=O)N3CCCCC3)ccc21` [CBK295621] it was 118%; in that of `O=C(Nc1cccc(O)c1)c1ccc2c(c1)C(=O)N(Cc1ccco1)C2=O` [CBK268640], 95.6%; in that of `O=C(CCCn1ccnc1)NC(Cc1cccs1)c1nccs1` (centres unmarked) [CBK285094], 90.1%. Turning to `Cn1c(CN2CCCCC2)nc2cc(NS(=O)(=O)c3ccc(Cl)cc3)ccc21` [CBK268404], the viability at 28.5 h, 10 µM came out at 82.8%. For the compound `CC(C)Cn1c(-c2ccc(F)cc2)cnc1SC(C)C(=O)NC(N)=O` (centres unmarked) [CBK295635], the viability at 28.5 h, 10 µM is 91.9%. Still for that read-out and setting: the value for `COc1ccc2nc(Nc3nc4c(s3)C(=O)CC(C)(C)C4)sc2c1` [CBK287481] was 90.5%; that for `CC(=O)Oc1cc2c(c(OC(C)=O)n1)C(C)NC2=O` (centres unmarked) [CBK012390] was 94.9%.

For `O=C(O)CCC(=O)Nc1ccccc1C(=O)NC1CCCCC1` [CBK267674], the viability at 28.5 h, 10 µM stood at 105%.

In the case of `CN(C)c1ccc(-c2nccnc2NCC(O)COc2ccccc2)cc1` (centres unmarked) [CBK036928], the viability at 28.5 h, 10 µM came to 103%. Take `COC(=O)c1ccc(N2C(=O)CC(NCCc3ccc(S(N)(=O)=O)cc3)C2=O)cc1` (centres unmarked) [CBK262859]: the viability at 28.5 h, 10 µM came to 99.9%.

Take `Cc1cc2c(s1)c1cnn(CC(=O)NC3CC3)c(=O)c1n2C` [CBK284246]: the viability at 28.5 h, 10 µM was 90.5%. Turning to `Cc1ccc(OCC(=O)NC(=S)Nc2cc(C(=O)O)ccc2C)cc1` [CBK265000], the viability at 28.5 h, 10 µM came out at 96.8%. `Cc1ccc(NC(=O)c2cc(NC(=O)C3C4C=CC(C4)C3C(=O)O)ccc2N2CCCCC2)cc1` (centres unmarked) [CBK265350]: the viability at 28.5 h, 10 µM was determined as 107%. Same read-out and setting: in the case of `Cc1cc(C2CCCCCN2C(=O)c2cc(C(C)C)on2)on1` (centres unmarked) [CBK281733] it was 79.7%. For the compound `Cc1c(S(=O)(=O)Nc2ccc(-c3ccc(F)cc3)cc2)cnn1C` [CBK281418], the viability at 28.5 h, 10 µM was determined as 114%.

As to `O=C(O)c1cccc(-c2ccc(/C=C3\SC(=S)N(Cc4ccco4)C3=O)o2)c1` [CBK265726], the viability at 28.5 h, 10 µM came to 98.3%. Turning to `Cn1nc([N+](=O)[O-])nc1OCc1nc2ccccc2n1C` [CBK265247], the viability at 28.5 h, 10 µM worked out at 88.9%.
